Measured values as given in US9557338B2 (SIGNAL PHARMACEUTICALS, LLC, priority 2012, dated 2017).
Where two headings read alike, the source gives them in different places.

Columns and labels:
Format in all cases: cell-based
Phospho-GSK3β(S9) = test: Luminex multiplex assay, Phospho-GSK3β(S9)
In short: (§1)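 Cells (PC3; HCT-116, MDA-MB-231 and HT29 with 500 ng/mL recombinant human IGF-I for the final 10 min) treated with compound or rapamycin over a concentration range for 1 h at 37° C, 5% CO2. Lysates read by bead-based Luminex sandwich immunoassay, 3 h at room temperature, RPE anti-rabbit detection, quantified against phosphoprotein standard curves.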

U-87 MG = test: Growth inhibition (cell proliferation assay), U-87 MG; settings: read-out: Compound 1 Growth Inhibition IC50
Phospho-PRAS40(T246) = test: Luminex multiplex assay, Phospho-PRAS40(T246)
In short: as §1

HT-29 = test: Growth inhibition (cell proliferation assay), HT-29; settings: read-out: Compound 1 Growth Inhibition IC50
A549 = test: Growth inhibition (cell proliferation assay), A549; settings: read-out: Compound 1 Growth Inhibition IC50
S6RP(S235/S236) = test: Inhibition of S6RP(S235/S236) phosphorylation in cell lines; settings: read-out: p-S6RP(S235/S236)
Phospho-4E-BP1(T46) = test: Luminex multiplex assay, Phospho-4E-BP1(T46); settings: read-out: p-4E-BP1(T46)
From the text: Determination of Phospho-GSK3β(S9), Phospho-PRAS40(T246) and Phospho-4E-BP1(T46) and the Effect of Compound 1 or Rapamycin.
The multiplex Luminex assay format differs from conventional enzyme-linked immunosorbent assay (ELISA) in that the multiplex capture antibody is attached to a polystyrene bead whereas the ELISA capture antibody is attached to the microplate well. The use of the suspension bead-based technology enables the multiplexing capabilities of the Luminex assays. The xMAP® technology uses 5.6 micron polystyrene microspheres, which are internally dyed with red and infrared fluorophores of differing intensities. Each bead is given a unique number, or bead region, allowing differentiation of one bead from another. Beads covalently bound to different specific antibodies can be mixed in the same assay, utilizing a 96-well microplate format. At the completion of the sandwich immunoassay, beads can be read, using the Luminex 100™ or Luminex 200 detection system, in single-file by dual lasers for classification and quantification of each analyte. The Akt-Pathway Phospho 5-plex kit used was custom made and includes the ability to simultaneously measure p-GSK3β (S9), p-PRAS40(T246), and p-4E-BP1(T46).
Cells were plated at the required density. The cells were treated with either Compound 1 or rapamycin over a range of concentrations for 1 hour in 5% CO2 at 37° C. Compound 1 and rapamycin were used at the same concentrations as for the proliferation assay. As for the cell proliferation assay, a reference standard was included in the assay for PC3 cells and the coefficient of variation for assay of p-GSK3β(S9) was 37.8% (n=30), p-PRAS40(T246) was 27.8% (n=30) and for p4E-BP1(T46) was 13.5% (n=4). For three cell lines (HCT-116, MDA-MB-231 and HT29) in the assay for phosphorylation of GSK3β, PRAS40 and 4E-BP1, IGF-I stimulation (500 ng/mL, recombinant human IGF-I) for the last 10 min of incubation was used. The media was aspirated from the wells and the plate was placed on ice. Then 35 μL of Lysis Buffer was added to each well and incubated on ice for at least 30 minutes. During the incubation, the standard curve for each phosphoprotein was prepared. The standards provided were reconstituted and serial dilutions were prepared according to the manufacturer's instructions. At the end of the cell lysis step, […] of the lysate was transferred to a V-bottom plate and spun at 4° C. at 2000 rpm for 5 minutes. Both the 1× Luminex bead and 1× detector antibody solutions were prepared during this time. The 1× bead solution was vortexed and 25 μL was added into each well of a black round bottom plate. Then 50 μL of the 1× detector antibody was added to each well. Fifty microliters (50 μL) of the prepared standards were added to the designated wells. Then 25 μL of the assay diluent was added to each well designated for the compound-treated cell lysates. At the end of the spin, 25 μL of cell lysate was added to the corresponding wells of the black assay plate. The assay plate was covered with the white plate lid and incubated for 3 hours at room temperature on an orbital shaker.
Approximately 10-15 minutes prior to the end of the first incubation, the secondary antibody solution was prepared according to the vendor's protocol. Goat anti-rabbit R-phycoerythrin red fluorescent protein (RPE) supplied as a 10× concentrate was diluted to generate a 1× goat anti-rabbit RPE stock. The 96-well filter plate was pre-wet with 200 μL of 1× Working wash solution. At the end of the 3 hour incubation, a multichannel pipette was used to transfer the entire contents from each assay well into the wells of the filter plate. The liquid from the wells was removed by aspiration with the vacuum manifold. Then 200 μL of 1× Working wash solution was added into each well. The wash solution was aspirated using the vacuum manifold after 15-30 seconds. This wash step was repeated one time. The bottom of the plate was blotted on clean paper towels to remove residual liquid. […]

mTORC1 = molecular target: T1, mTORC1 (Homo sapiens, UniProt P42345); test: Inhibition of mTORC1 measured by phosphorylation of pathway markers (FIG. 1); settings: phosphorylation of pathway markers Akt, PRAS40, GSK-3β, p70S6, S6, 4-EBP1
T1 construct: endogenous in cells; host or cells: PC3, A549, HCT116, U-87 MG, MDA-MB-231, NCI-H23, HT-29
From the text: The activity of the TORC1 complex can be followed from the phosphorylation status of 4E-BP1(T46), a direct substrate of mTOR kinase and S6RP(S235/S236), a downstream substrate from mTOR. The activity of the TORC2 complex can be followed directly from the phosphorylation status of Akt(S473) and indirectly from the phosphorylation status of AKT substrates, GSK3β(S9) and PRAS40(T246). […] Full activation of Akt requires an additional phosphorylation on T308 that is done by PDK1 and is speculated to be co-dependent with the TORC2 phosphorylation of the Akt(S473).

Akt(T308) = test: Inhibition of Akt(T308) phosphorylation in cell lines; settings: read-out: p-Akt(T308)
PC3 = test: Growth inhibition (cell proliferation assay), PC3; settings: read-out: Compound 1 Growth Inhibition IC50

With `CO[C@H]1CC[C@H](N2C(=O)CNc3ncc(-c4ccc(C(C)(C)O)nc4)nc32)CC1` [Compound 1, 7-(6-(2-hydroxypropan-2-yl)pyridin-3-yl)-1-((1r,4r)-4-methoxycyclohexyl)-3,4-dihydropyrazino-[2,3-b]pyrazin-2(1H)-one] the IC50 (Phospho-GSK3β(S9); HCT116, IGF-I stimulation, read-out: p-GSK3β (S9)) was 220 nM, the IC50 (Phospho-GSK3β(S9); HCT116 cell line, IGF, read-out: Luminex GSK-3β (IGF)) was 359 nM and the IC50 (Phospho-GSK3β(S9); HT-29, IGF-I stimulation, read-out: p-GSK3β (S9)) was over 2000 nM. It also gave an IC50 (Phospho-GSK3β(S9); NCI-H23, read-out: p-GSK3β (S9)) of over 2000 nM, an IC50 (Phospho-GSK3β(S9); PC3, read-out: p-GSK3β (S9)) of 230 nM and an IC50 (Phospho-GSK3β(S9); U87MG cell line, read-out: Luminex GSK-3β) of 281 nM. For the same compound, the IC50 (Phospho-GSK3β(S9); U-87 MG, read-out: p-GSK3β (S9)) was 280 nM, the IC50 (U-87 MG) was 790 nM and the IC50 (Phospho-PRAS40(T246); A549, read-out: p-PRAS40 (T246)) was 750 nM. It also gave an IC50 (Phospho-PRAS40(T246); HCT116, IGF-I stimulation, read-out: p-PRAS40 (T246)) of 430 nM, an IC50 (Phospho-PRAS40(T246); HCT116 cell line, IGF, read-out: Luminex PRAS40 (IGF)) of 430 nM and an IC50 (Phospho-PRAS40(T246); HT-29, IGF-I stimulation, read-out: p-PRAS40 (T246)) of 350 nM. The IC50 (Phospho-PRAS40(T246); MDA-MB-231, IGF-I stimulation, read-out: p-PRAS40 (T246)) was 280 nM, the IC50 (Phospho-PRAS40(T246); NCI-H23, read-out: p-PRAS40 (T246)) was 190 nM and the IC50 (Phospho-PRAS40(T246); PC3, read-out: p-PRAS40 (T246)) was 140 nM. The IC50 (Phospho-PRAS40(T246); U87MG cell line, read-out: Luminex PRAS40) was 362 nM, the IC50 (Phospho-PRAS40(T246); U-87 MG, read-out: p-PRAS40 (T246)) was 360 nM and the IC50 (HT-29) was over 20000 nM. The IC50 (A549) was 320 nM, the IC50 (S6RP(S235/S236); A549) was 40 nM and the IC50 (S6RP(S235/S236); HCT116) was 80 nM. For the same compound, the IC50 (S6RP(S235/S236); HT-29) was 10 nM, the IC50 (S6RP(S235/S236); MDA-MB-231) was 30 nM and the IC50 (S6RP(S235/S236); NCI-H23) was 70 nM. For the same compound, the IC50 (S6RP(S235/S236); PC3) was 20 nM, the IC50 (S6RP(S235/S236); U-87 MG) was 190 nM and the IC50 (Phospho-4E-BP1(T46); A549) was 330 nM. For the same compound, the IC50 (Phospho-4E-BP1(T46); HCT116, IGF-I stimulation) was 390 nM, the IC50 (Phospho-4E-BP1(T46); HT-29, IGF-I stimulation) was 70 nM and the IC50 (Phospho-4E-BP1(T46); MDA-MB-231, IGF-I stimulation) was 120 nM. It also gave an IC50 (Phospho-4E-BP1(T46); NCI-H23) of 120 nM, an IC50 (Phospho-4E-BP1(T46); PC3) of 410 nM and an IC50 (Phospho-4E-BP1(T46); U-87 MG) of 1340 nM. For the same compound, the “inhibition of mTORC1” value (mTORC1) was “inhibition”, the IC50 (Akt(T308); A549) was 640 nM and the IC50 (Akt(T308); HCT116) was 1950 nM. The IC50 (Akt(T308); HT-29) was 240 nM, the IC50 (Akt(T308); PC3) was 130 nM and the IC50 (Akt(T308); U-87 MG) was 260 nM. The IC50 (PC3) was 110 nM.
